Patent US5814612A, “Retinol derivatives and uses thereof” (priority 1992, dated 1998)

Tests used:
T cells = experiment: T cell activation and proliferation, retinol cofactor requirement; assay type: cell-based, murine
Experimental: They were seeded into 96-well flat-bottom plates at varying cellular densities in a final volume of 100 μl. In control experiments, cells were cultured in medium containing 10% FCS or 3% human serum and 5×10^-5 M 2ME. […] Cultures were carried out in duplicate. Plates were incubated at 37° C. in a humidified 5% CO2 atmosphere. Cellular proliferation was determined by [^3 H] thymidine uptake (0.5 uCi/well; New England Nuclear, Boston, Mass.) after the incubation times indicated for each experiment with a 4 hour labeling pulse. Cells were harvested onto glass filter and [^3 H]TdR incorporation was determined by liquid scintillation counting. The data presented are the means of duplicate or six replicate cultures. The restriction to duplicate measurements was necessary to conserve scarce 14HRR. […] Each experiment was repeated at least twice.

lymphoblastoid 5/2 cells = experiment: Conversion of 13,14DHR to 14HRR by lymphoblastoid cells; assay type: in vitro ADME, human; settings: 10^-6 M, 1 and 2 hours, ITLB medium
Experimental: FIGS. 25A through 25D. 13,14DHR can be converted to 14HRR by lymphoblastoid cells. 200,000 5/2 cells/ml were incubated with or without 10^-6 M 13,14DHR added in serum-free ITLB medium. After 1 and 2 hours, cells pellets corresponding to 10 ml of culture were delipidated and the corresponding lipid fractions separated on an analytical C18 reversed-phase column according to FIG. 20. Peaks were identified according to their retention times and their UV absorption patterns.
Lymphoblastoid 5/2 cells devoid of retinol were cultured in the presence or absence of 10^-6 M 13,14DHR for 1 and 2 hours in ITLB medium. The retinoids extracted from the cell pellets were separated by HPLC according to FIG. 20. […] There was no 14HRR measurable in control cultures.

5/2 lymphoblastoid cells = experiment: Kinetics of biosynthesis of 13,14DHR and 14HRR from 3H retinol in 5/2 lymphoblastoid cells; assay type: in vitro ADME, human
Experimental: FIG. 24. Kinetics of biosynthesis of 14HRR in lymphoblastoid cells. 50 ml ITLB 600,000 5/2 cells/ml were incubated with 20 μCi of ^3 H retinol in serum-free ITLB medium. Cell pellets corresponding to 10 ml of culture were delipidated at 20 minute intervals and the corresponding lipid fraction separated on an analytical C18 reversed-phase column (see FIG. 20). Radioactive peaks were identified by coelution with cold reference retinoids.
The kinetics of biosynthesis of 13,14DHR and 14HRR were determined in 5/2 lymphoblastoid cells. These cells were cultured in the presence of ^3 H retinol for different time periods, and the cell-associated retinoids extracted as referenced above. They were then chromatographed on an analytical C18 column as described in FIG. 20. The sizes of peaks emerging at 16.8 minutes, representing 13,14DHR, and 18.5 minutes, representing 14HRR, were measured and plotted in the bar diagram of FIG. 24.

5/2 cells = experiment: Growth-supporting activity on 5/2 cells in serum-free ITLB medium; assay type: cell-based, human
Experimental: The assay was done in 96-well microtiter plates in a final volume of 200 ul/well. The cells were cultured for 72 hours and cell growth determined by [^3 H] thymidine (0.8 μCi/well)labeling for the last 16 hours. Retinoids were added at the indicated concentrations at the initiation of culture and every 24 hours thereafter.
5/2 cells were grown in the absence of retinol in a medium containing the basic RPMI 1640 amino acid/salt mixture, insulin (5 μg/ml), transferrin (5 μg/ml), albumin (0.1%) and linoleic acid (10^-6 M) (ITLB). […] The dose-response curve shown in FIG. 26 indicates an effective concentration of 10^-7 M.

CC1=C(/C=C/C(C)=C/C=C/C(C)(O)C(O)CO)C(C)(C)CCC1 (stereo not shown) [13,14DHR, 13,14-dihydroxy-retinol]
ability to substitute for retinol in T cell activation (words) (T cells): can effectively substitute for retinol | conversion to 14HRR (lymphoblastoid 5/2 cells): produced 14HRR | order of metabolite production (5/2 lymphoblastoid cells): production of 13,14DHR precedes that of 14HRR | restoration of proliferation in absence of retinol (5/2 cells): proliferation was restored as well
